For test [1], the target named is T1, Neutrophil elastase (Homo sapiens, UniProt P08246).
T1 sequence (P08246 whole entry): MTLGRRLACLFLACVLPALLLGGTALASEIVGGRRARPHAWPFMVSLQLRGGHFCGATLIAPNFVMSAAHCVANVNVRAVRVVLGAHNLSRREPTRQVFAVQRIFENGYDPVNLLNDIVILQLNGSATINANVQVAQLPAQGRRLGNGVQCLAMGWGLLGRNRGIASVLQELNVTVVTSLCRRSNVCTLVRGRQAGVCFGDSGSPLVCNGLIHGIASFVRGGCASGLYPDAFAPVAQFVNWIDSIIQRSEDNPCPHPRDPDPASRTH
Description: Compound was tested for inhibition of human leukocyte Elastase from human polymorphonuclear leukocytes; not inhibitory at the limit of solubility.

The target of test [2] is T1, Neutrophil elastase. The test can be described thus: Compound was tested for inhibition of human leukocyte Elastase at 15 uM concentration from human polymorphonuclear leukocytes.
Test [3] addresses T2, Cathepsin G (Homo sapiens) (UniProt P08311).
T2 sequence (whole entry): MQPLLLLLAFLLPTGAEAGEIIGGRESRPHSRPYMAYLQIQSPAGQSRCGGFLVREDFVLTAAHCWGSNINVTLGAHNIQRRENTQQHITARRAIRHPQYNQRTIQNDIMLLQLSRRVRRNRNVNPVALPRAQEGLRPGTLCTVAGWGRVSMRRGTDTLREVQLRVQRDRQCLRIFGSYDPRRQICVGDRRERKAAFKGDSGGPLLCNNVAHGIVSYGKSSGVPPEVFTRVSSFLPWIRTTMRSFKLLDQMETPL
The test can be described thus: Compound was tested for inhibitory activity against human Cathepsin G. The following applies: concentration not given here.

Test [4] addresses T1, Neutrophil elastase. The test can be described thus: Compound was tested for inhibition of human leukocyte Elastase at 64 uM concentration from human polymorphonuclear leukocytes.
Test [5] deals with Chymotrypsinogen A (Bos taurus) (UniProt P00766). The test can be described thus: Compound was tested for inhibitory activity against […] alpha-chymotrypsin. The following applies: concentration not given here.
Test [6] addresses T1, Neutrophil elastase. Description: Compound was tested for inhibition of human leukocyte Elastase at 13 uM concentration from human polymorphonuclear leukocytes.
In test [7] the target is T1, Neutrophil elastase. The test can be described thus: Compound was tested for inhibition of human leukocyte Elastase at 32 uM concentration from human polymorphonuclear leukocytes.
The target in test [8] is T1, Neutrophil elastase. Description: Compound was tested for inhibition of human leukocyte Elastase at 16 uM concentration from human polymorphonuclear leukocytes.
For test [9], the target named is T1, Neutrophil elastase. The test can be described thus: Compound was tested for inhibition of human leukocyte Elastase at 51 uM concentration from human polymorphonuclear leukocytes.
The target of test [10] is T1, Neutrophil elastase. Description: Compound was tested for inhibition of human leukocyte Elastase at 23 uM concentration from human polymorphonuclear leukocytes.

For the compound `CCNc1nc2c3ccccc3nc-2c(O)s1`, the Ki result on Neutrophil elastase [1] is reported as “No inhibition”.
On Neutrophil elastase [2], `O=[N+]([O-])c1ccc(Nc2nc3c4ccccc4nc-3c(O)s2)cc1` yielded an inhibition constant Ki of at least 45 µM.
As for `Oc1sc(Nc2ccccc2)nc2c3ccccc3nc1-2`, the inhibition is 11.1% in [3] and 13.3% in test [5]. Moreover, at Neutrophil elastase [4], affinity was put at a Ki of 43 µM.
Consider `CNc1nc2c3ccccc3nc-2c(O)s1`, for which, on Neutrophil elastase [1], the Ki result is reported as “No inhibition”.
`Oc1sc(Nc2ccc(Br)cc2)nc2c3ccccc3nc1-2`: the Ki at Neutrophil elastase [6] is at least 30 µM.
Regarding `CCCNc1nc2c3ccccc3nc-2c(O)s1`, the inhibition constant (Ki) entry on Neutrophil elastase [1] is recorded as “No inhibition”.
`Oc1sc(Nc2ccccc2F)nc2c3ccccc3nc1-2` displayed a Ki at Neutrophil elastase [7] of at least 88 µM.
On Neutrophil elastase [8], `Oc1sc(Nc2cccc(F)c2)nc2c3ccccc3nc1-2` yielded an inhibition constant Ki of at least 72 µM.
At Neutrophil elastase [9], `Oc1sc(Nc2ccc(F)cc2)nc2c3ccccc3nc1-2` gave an inhibition constant Ki of at least 104 µM.
With `Cc1ccc(Nc2nc3c4ccccc4nc-3c(O)s2)cc1`, the Ki on Neutrophil elastase [8] is at least 78 µM.
As for `Oc1sc(Nc2ccc(Cl)cc2)nc2c3ccccc3nc1-2`, the affinity on Neutrophil elastase [10] corresponds to a Ki of 29 µM.
As to `Oc1sc(Nc2cccc(C(F)(F)F)c2)nc2c3ccccc3nc1-2`, the inhibition in test [3] came out at 5.3%; in test [5], 34.2%. On Neutrophil elastase [6], this compound had an inhibition constant (Ki) of at least 30 µM.

One may read the Ki as the dissociation constant of the complex between target and ligand, obtained from inhibition or displacement. Read a high Ki as lower affinity. By inhibition is commonly meant the change of the read-out against control, counted positive when it falls. A higher inhibition goes with a strong effect.

The values are drawn from ChEMBL document CHEMBL1127997, “Synthesis of new thiazinoindole derivatives and their evaluation as inhibitors of human leukocyte elastase and other related serine proteases” (Bioorg Med Chem Lett, 1994).
